Legend:
[1] = target: T1, frataxin (Homo sapiens, UniProt Q16595); assay: Frataxin accumulation in FRDA lymphoblasts (FACS, SDS-PAGE/western blot); format: cell-based; settings: 50 μM, 6 days
T1 sequence (Q16595 42-210): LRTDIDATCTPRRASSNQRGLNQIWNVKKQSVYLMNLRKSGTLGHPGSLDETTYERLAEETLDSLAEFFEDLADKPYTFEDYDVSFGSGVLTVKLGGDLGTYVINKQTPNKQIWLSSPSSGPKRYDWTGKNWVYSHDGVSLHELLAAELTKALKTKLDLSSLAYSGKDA
Experimental: Human embryonic kidney HEK-293 cells and Hela cells were maintained in DMEM supplemented with 10% FBS. HEK-293 were transfected with the calcium/phosphate precipitation method, using 20 μg total DNA (10 μg pIRES-frataxin and 10 μg HA-Ub, or corresponding empty vectors) on 10 cm dishes. Hela cells were transfected using Lipofectamine 2000 reagents (Invitrogen), according to manufacturer's instructions. Where indicated, the day after transfection, cells were treated for 16 h with 10 μM proteasome inhibitors, MG132 or Lactacystin, or 50 ng/ml DUB inhibitor Ubiquitin-Aldehyde. Flp-In-HEK-293 cells (Invitrogen) are HEK-293 variants allowing the stable and isogenic integration and expression of a transfected gene. Flp-In-HEK-293 cells were maintained in DMEM supplemented with 10% FBS and transfected with the calcium/phosphate precipitation method. Briefly, cells were plated on 10 cm dishes and transfected with 10 μg total DNA. The HEK-293 clone stably expressing frataxin^1-210 was previously described (4). […]
(§1) Cell extracts were prepared in modified RIPA buffer (10 mM sodium phosphate pH7.2, 150 mM NaCl, 1% Na deoxycholate, 0.1% SDS, 1% Np40, 2 mM EDTA) or IP buffer (50 mM Tris-HCl, pH 7.5, 150 mM NaCl, 1% Nonidet P-40, 5 mM EDTA, 5 mM EGTA) supplemented with Complete protease inhibitor cocktail and 2 mM N-Ethylmaleimide (NEM). For immunoblotting, 100 μg of protein extract were separated on 12% SDS-PAGE, blotted onto nitrocellulose membrane and detected with specific antibodies. […] Immunocomplexes were then resolved and analysed by SDS-PAGE. […]
Cells were collected after the indicated treatments and fixed for 20 minutes in 4% paraformaldehyde at room temperature. […] After washing 3 times with PBS cells were analyzed by flow cytometry (Becton Dickinson).
FRDA lymphoblasts GM15850 were cultured for 6 days in the presence of 50 μM Formula IV or Formula VI. Cells were then fixed, stained with anti-frataxin antibody or anti-Bcl2, as a control, and analyzed by flow cytometry. […]

[2] = target: T1, frataxin; assay: Frataxin accumulation in FRDA fibroblasts (FACS, SDS-PAGE/western blot); format: cell-based; parameters: HEK-293 Flp-In cells stably transfected with frataxin^1-210; expressed in transfected cells; settings: FRDA fibroblasts GM03816; 100 μM; 3 days
Experimental: Human embryonic kidney HEK-293 cells and Hela cells were maintained in DMEM supplemented with 10% FBS. HEK-293 were transfected with the calcium/phosphate precipitation method, using 20 μg total DNA (10 μg pIRES-frataxin and 10 μg HA-Ub, or corresponding empty vectors) on 10 cm dishes. Hela cells were transfected using Lipofectamine 2000 reagents (Invitrogen), according to manufacturer's instructions. Where indicated, the day after transfection, cells were treated for 16 h with 10 μM proteasome inhibitors, MG132 or Lactacystin, or 50 ng/ml DUB inhibitor Ubiquitin-Aldehyde. […]
as §1
Cells were collected after the indicated treatments and fixed for 20 minutes in 4% paraformaldehyde at room temperature. […] After washing 3 times with PBS cells were analyzed by flow cytometry (Becton Dickinson). […]

[3] = tested on: FRDA fibroblasts GM03816; assay: Intracellular ATP content in FRDA fibroblasts; format: cell-based, human; settings: 100 μM, 3 days
Experimental: FRDA lymphoblasts and fibroblasts were washed twice with ice-cold Dulbecco's Phosphate Buffered Saline (DPBS) and lysed in CelLytic M buffer (Sigma-Aldrich) supplemented with Complete protease inhibitor cocktail, EDTA-free (Roche). Aconitase activity was measured spectrophotometrically at 340 nm by a coupled reaction of aconitase and isocitrate dehydrogenase. The assay reactions contained […] of cell extract in 50 mM Hepes pH 7.4, 1 mM sodium citrate, 0.6 mM MnCl2, 0.2 mM NADP^+ and 2 U/ml isocitrate dehydrogenase (Sigma-Aldrich). Citrate synthase activity was assessed using […] of cell extract with the Citrate Synthase Assay Kit (Sigma-Aldrich CS0720). […] The intracellular ATP content was measured in black microtiter plates using […] of cell extract with the ATP Bioluminescence Assay Kit CLS II (Roche) according to the manufacturer's protocol.
FRDA fibroblasts GM03816 were treated for 3 days with 100 μM Formula IV. Cells were then fixed, stained with anti-frataxin antibody or anti-Bcl2, as a control, and analyzed by flow cytometry. […] Total cell extracts were resolved on SDS-PAGE and analyzed with anti-frataxin antibody, or anti-tubulin, as a loading control. […] ATP levels were quantitated as described previously.

[4] = tested on: aconitase; assay: Aconitase assay in FRDA lymphoblasts; format: cell-based, human; settings: FRDA lymphoblasts GM16798; 50 μM; 6 days
Experimental: (§2) FRDA lymphoblasts and fibroblasts were washed twice with ice-cold Dulbecco's Phosphate Buffered Saline (DPBS) and lysed in CelLytic M buffer (Sigma-Aldrich) supplemented with Complete protease inhibitor cocktail, EDTA-free (Roche). Aconitase activity was measured spectrophotometrically at 340 nm by a coupled reaction of aconitase and isocitrate dehydrogenase. The assay reactions contained […] of cell extract in 50 mM Hepes pH 7.4, 1 mM sodium citrate, 0.6 mM MnCl2, 0.2 mM NADP^+ and 2 U/ml isocitrate dehydrogenase (Sigma-Aldrich). Citrate synthase activity was assessed using […] of cell extract with the Citrate Synthase Assay Kit (Sigma-Aldrich CS0720). The aconitase activities were normalized with respect to citrate synthase ratios; one milliunit of enzyme was defined as the amount of protein that converted 1 nmol of NADP^+ in 1 min at 25° C. The intracellular ATP content was measured in black microtiter plates using […] of cell extract with the ATP Bioluminescence Assay Kit CLS II (Roche) according to the manufacturer's protocol.
(§3) FRDA lymphoblasts GM16798 were left untreated or treated for 6 days with 50 μM Formula IV. Their genetically-related healthy control GM16241 lymphoblasts were left untreated. […] Aconitase activity and ATP levels were measured as described previously.

[5] = tested on: FRDA cells; assay: Tolerability by FRDA cells; format: cell-based, human; settings: among the different ubiquitin-competing molecules
[6] = tested on: FRDA lymphoblasts GM16798; assay: Intracellular ATP content in FRDA lymphoblasts; format: cell-based, human; settings: 50 μM, 6 days
Experimental: as §2, §3

[7] = target: T1, frataxin; assay: Frataxin accumulation in HEK-293 Flp-In cells stably expressing frataxin 1-210 (WB, FACS); format: cell-based; parameters: HEK-293 Flp-In cells stably transfected with frataxin^1-210; expressed in transfected cells; settings: HEK-293 Flp-In frataxin 1-210; 100 μM; 18 hours
Experimental: Human embryonic kidney HEK-293 cells and Hela cells were maintained in DMEM supplemented with 10% FBS. HEK-293 were transfected with the calcium/phosphate precipitation method, using 20 μg total DNA (10 μg pIRES-frataxin and 10 μg HA-Ub, or corresponding empty vectors) on 10 cm dishes. Hela cells were transfected using Lipofectamine 2000 reagents (Invitrogen), according to manufacturer's instructions. Where indicated, the day after transfection, cells were treated for 16 h with 10 μM proteasome inhibitors, MG132 or Lactacystin, or 50 ng/ml DUB inhibitor Ubiquitin-Aldehyde. Flp-In-HEK-293 cells (Invitrogen) are HEK-293 variants allowing the stable and isogenic integration and expression of a transfected gene. Flp-In-HEK-293 cells were maintained in DMEM supplemented with 10% FBS and transfected with the calcium/phosphate precipitation method. Briefly, cells were plated on 10 cm dishes and transfected with 10 μg total DNA. The HEK-293 clone stably expressing frataxin^1-210 was previously described (4). The HEK-293 clone stably expressing frataxin^K147R was obtained from cultures in selection medium containing 100 μg/ml hygromycin B (Invitrogen). FRDA lymphoblasts GM15850, GM16798 and […], as well control lymphoblasts GM15851, GM16241 and GM16215, were maintained in RPMI supplemented with 15% FBS. Treatments with specific ubiquitin-competing molecules were performed in 20% FBS containing medium. FRDA fibroblasts GM03816 were maintained in DMEM supplemented with 15% FBS.
Cell extracts were prepared in modified RIPA buffer (10 mM sodium phosphate pH7.2, 150 mM NaCl, 1% Na deoxycholate, 0.1% SDS, 1% Np40, 2 mM EDTA) or IP buffer (50 mM Tris-HCl, pH 7.5, 150 mM NaCl, 1% Nonidet P-40, 5 mM EDTA, 5 mM EGTA) supplemented with Complete protease inhibitor cocktail and 2 mM N-Ethylmaleimide (NEM). For immunoblotting, 100 μg of protein extract were separated on 12% SDS-PAGE, blotted onto nitrocellulose membrane and detected with specific antibodies. For in vivo detection of ubiquitin-conjugates […] and 50 ng/ml Ubiquitin-Aldehyde were added to the lysis buffer. For immunoprecipitation, 5 mg of total protein extract prepared as above were incubated for 1-2 h at 4° C. with specific antibodies, previously conjugated to Protein G-sepharose (GE Healthcare). Immunocomplexes were then resolved and analysed by SDS-PAGE. […] Densitometric analysis was performed using ImageJ software.
Cells were collected after the indicated treatments and fixed for 20 minutes in 4% paraformaldehyde at room temperature. Cells were then permeabilized and blocked in a blocking solution (3% FBS in PBS) containing 0.2% Triton, for 1 hour at room temperature. Cells were then incubated overnight at 4° C. with anti-frataxin monoclonal antibody (MAB-10485, Immunological Science) or anti-Bcl2 monoclonal antibody (sc-509, Santa Cruz) diluted 1:200 in blocking solution. Cells were then washed 3 times in PBS and incubated for 1 hour at room temperature with FITC-conjugated goat anti-mouse IgG/IgM (BD Bioscience Pharmingen) diluted 1:200 in blocking solution. After washing 3 times with PBS cells were analyzed by flow cytometry (Becton Dickinson).
HEK-293 Flp-In cells stably transfected with frataxin^1-210 were treated for the indicated times with 10 μM MG132. Total cell extracts were blotted as in A. One representative experiment out of four performed with similar results is shown in FIG. 18.
Formula III induces frataxin precursor accumulation. HEK-293 Flp-In cells stably expressing frataxin^1-210 were treated for the indicated days with 20 μM of Formula III or 10 μM MG132. Total cell extracts were resolved on SDS-PAGE and analyzed with anti-frataxin antibody, or anti-tubulin, as a loading control.
Formula III induces mature frataxin accumulation. HEK-293 Flp-In cells stably expressing frataxin^1-210 were treated and analyzed as in B. One representative experiment out of three performed with similar results is shown FIG. 5C. […]

## O=[N+]([O-])c1cccc(/C=N/NS(=O)(=O)c2ccc(Cl)cc2)c1O [Formula IV]
[1]; FRDA lymphoblasts GM15850, GM16798 and GM16214
  accumulation of mature frataxin by SDS-PAGE and western blot: accumulation of mature frataxin can be detected
[1]; FRDA lymphoblasts GM15850
  frataxin accumulation by FACS analysis: discrete frataxin accumulation detectable in all cells
[2]
  frataxin accumulation by FACS and SDS-PAGE/western blot: frataxin accumulation can be detected as early as 3 days of treatment
[3]
  ATP levels: Rescue of ATP levels can also be achieved
[4]
  aconitase activity: significantly boost
[5]
  tolerability by FRDA cells: best tolerated
[6]
  ATP levels: significantly boost
[7]
  frataxin accumulation by WB and FACS analysis: effective in inducing frataxin accumulation

Reference: patent US8703749B2, “Compositions and methods for treating Friedreich's Ataxia” (priority 2009, dated 2014)
